From ChEMBL document CHEMBL1201862, “PubChem BioAssay data set” (2004)
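Test compounds were applied to cells in 96-well plates for 48 hours at 5 doses. GI50 = concentration required for 50% inhibition of growth.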 Active and inactive are the calls of the source. Rule as the data show it: active = GI50 up to about 1.1 µM and inactive = higher.

Tests used:
Test in all cases: NCI-60 cell line screen, 48 h
[1] = test system: SNB-75
[2] = test system: RPMI-8226
[3] = test system: HOP-62
[4] = test system: EKVX
[5] = test system: TK-10
[6] = test system: SR
[7] = test system: DU-145
[8] = test system: M14
[9] = test system: OVCAR-5
[10] = test system: MDA-MB-435
[11] = test system: HT-29
[12] = test system: OVCAR-4
[13] = test system: PC-3
[14] = test system: MCF7
[15] = test system: NCI-H522
[16] = test system: NCI/ADR-RES
[17] = test system: LOX IMVI
[18] = test system: IGROV-1
[19] = test system: CCRF-CEM

Row | Structure (SMILES) | GI50 [1] | GI50 [2] | GI50 [3] | GI50 [4] | GI50 [5] | GI50 [6] | GI50 [7] | GI50 [8] | GI50 [9] | GI50 [10] | GI50 [11] | GI50 [12] | GI50 [13] | GI50 [14] | GI50 [15] | GI50 [16] | GI50 [17] | GI50 [18] | GI50 [19]
1 | CC(C)(C)OC(=O)N(CCNS(=O)(=O)c1cccc2cnccc12)CCC(=O)ON1C(=O)CCC1=O | > 100 µM (inactive) | > 100 µM (inactive) | > 100 µM (inactive) | 6.52 µM (inactive) | > 100 µM (inactive) | > 100 µM (inactive) | > 100 µM (inactive) | > 100 µM (inactive) | > 100 µM (inactive) | > 100 µM (inactive) | > 100 µM (inactive) | > 100 µM (inactive) | > 100 µM (inactive) | > 100 µM (inactive) | > 100 µM (inactive) | > 100 µM (inactive) | > 100 µM (inactive) | > 100 µM (inactive) | –
2 | Nc1cccc2nsnc12 | 53.8 µM (inactive) | 17.8 µM (inactive) | > 100 µM (inactive) | > 91.8 µM (inactive) | > 100 µM (inactive) | 4.2 µM (inactive) | > 100 µM (inactive) | > 83.9 µM (inactive) | > 100 µM (inactive) | 31.6 µM (inactive) | > 100 µM (inactive) | > 100 µM (inactive) | > 100 µM (inactive) | > 88.3 µM (inactive) | 9.1 µM (inactive) | > 100 µM (inactive) | > 53.1 µM (inactive) | > 100 µM (inactive) | 11.9 µM (inactive)
3 | COc1ccc(/C=C/C(=O)c2cc(C(C)(C)C)c(O)c(C(C)(C)C)c2)cc1OC | 3.01 µM (inactive) | 2.56 µM (inactive) | 23 µM (inactive) | 11.2 µM (inactive) | 6.82 µM (inactive) | 0.551 µM (active) | 10 µM (inactive) | 25.3 µM (inactive) | 25.2 µM (inactive) | 3.2 µM (inactive) | 4.18 µM (inactive) | 5.9 µM (inactive) | 3.66 µM (inactive) | 4.29 µM (inactive) | 5.61 µM (inactive) | 4.85 µM (inactive) | 8.75 µM (inactive) | 17.7 µM (inactive) | 2.83 µM (inactive)
4 | O=C(Nc1nnc(-c2ccccc2)o1)C(SC(=S)N1CCCCC1)c1ccccc1 (stereo unspecified) | 30.4 µM (inactive) | 16.2 µM (inactive) | 18.3 µM (inactive) | 20.9 µM (inactive) | 56 µM (inactive) | 4.98 µM (inactive) | 17.2 µM (inactive) | 12.6 µM (inactive) | 26.6 µM (inactive) | 21.3 µM (inactive) | 20.6 µM (inactive) | 30.5 µM (inactive) | 17.5 µM (inactive) | 23.4 µM (inactive) | 23.5 µM (inactive) | 3.93 µM (inactive) | 4.16 µM (inactive) | 15.9 µM (inactive) | 3.35 µM (inactive)
5 | O=C(/C=C/c1ccc(O)c(O)c1)NC(CO)C(=O)O (stereo unspecified) | > 100 µM (inactive) | > 100 µM (inactive) | > 100 µM (inactive) | > 100 µM (inactive) | > 100 µM (inactive) | > 100 µM (inactive) | > 100 µM (inactive) | > 100 µM (inactive) | > 100 µM (inactive) | > 100 µM (inactive) | > 100 µM (inactive) | > 100 µM (inactive) | > 100 µM (inactive) | > 100 µM (inactive) | > 100 µM (inactive) | 2.59 µM (inactive) | > 100 µM (inactive) | 0.612 µM (active) | > 100 µM (inactive)
6 | Cc1ccc(S(=O)(=O)Nc2cc(O)nc3c2CCC3)cc1 | > 100 µM (inactive) | 43.2 µM (inactive) | > 100 µM (inactive) | > 100 µM (inactive) | > 100 µM (inactive) | > 100 µM (inactive) | > 100 µM (inactive) | > 100 µM (inactive) | > 100 µM (inactive) | > 100 µM (inactive) | > 100 µM (inactive) | 57.1 µM (inactive) | > 100 µM (inactive) | > 100 µM (inactive) | > 100 µM (inactive) | > 100 µM (inactive) | > 100 µM (inactive) | > 100 µM (inactive) | > 100 µM (inactive)
7 | COc1cccc(/C=C\c2ccc(O)cc2)c1 | 24 µM (inactive) | 22.4 µM (inactive) | 34.6 µM (inactive) | 30.2 µM (inactive) | 52.4 µM (inactive) | 2.72 µM (inactive) | 13.1 µM (inactive) | 17.5 µM (inactive) | 62.8 µM (inactive) | 19.5 µM (inactive) | 21.3 µM (inactive) | 23.7 µM (inactive) | 11.7 µM (inactive) | 26.1 µM (inactive) | 7.06 µM (inactive) | 6.12 µM (inactive) | 14.9 µM (inactive) | 26.7 µM (inactive) | –
